From patent US8222288B2, “Small molecule inhibitors of MDM2 and the uses thereof” (The Regents of the University of Michigan, priority 2006, dated 2012)
“And” between values parts separate entries of the source, which are not always exact repeats. Equal values may be shown once. Read-outs that look alike come from different tables or passages of the source.

Experiments:
PC-3 (p53 null) cells = test: Cell growth inhibition, WST-8, 4 days, PC3; details: single runs and mean ± SD line
Protocol: (§1) To test these predictions, a cell growth assay was developed using human prostate cancer LNCaP (p53 wild-type) and PC-3 (p53 null) cell lines.
(§2) Cells were seeded in 96-well flat bottom cell culture plates at a density of 3-4×10^3 cells/well and incubated in the presence of compounds for 4 days.

[1] = tested on: HCT116 (wild-type p53) colon cancer cells; test: Cell growth inhibition, HCT116 p53WT; details: single runs and mean ± SD line
Protocol: as §2

HCT116 p53KO cells = test: Cell growth inhibition, HCT116 p53KO; details: single runs and mean ± SD line
Protocol: as §2

[2] = tested on: LNCaP (p53 wild-type) cells; test: Cell growth inhibition, WST-8, 4 days, LNCaP; details: single runs and mean ± SD line
Protocol: as §1, §2

MDM2 protein = MDM2 protein (Homo sapiens, UniProt Q00987); test: MDM2 binding assay (competition with F-6 probe; IC50 and calculated Ki); details: F-6 [1 nM]; for IC50: MDM2 [10 nM], repeat determinations listed line by line; for Ki: value in parentheses, calculation of Ki: MDM2 [10 nM], read-out: (Ki ± SD)
MDM2 protein, sequence (Q00987 whole entry, species assumed): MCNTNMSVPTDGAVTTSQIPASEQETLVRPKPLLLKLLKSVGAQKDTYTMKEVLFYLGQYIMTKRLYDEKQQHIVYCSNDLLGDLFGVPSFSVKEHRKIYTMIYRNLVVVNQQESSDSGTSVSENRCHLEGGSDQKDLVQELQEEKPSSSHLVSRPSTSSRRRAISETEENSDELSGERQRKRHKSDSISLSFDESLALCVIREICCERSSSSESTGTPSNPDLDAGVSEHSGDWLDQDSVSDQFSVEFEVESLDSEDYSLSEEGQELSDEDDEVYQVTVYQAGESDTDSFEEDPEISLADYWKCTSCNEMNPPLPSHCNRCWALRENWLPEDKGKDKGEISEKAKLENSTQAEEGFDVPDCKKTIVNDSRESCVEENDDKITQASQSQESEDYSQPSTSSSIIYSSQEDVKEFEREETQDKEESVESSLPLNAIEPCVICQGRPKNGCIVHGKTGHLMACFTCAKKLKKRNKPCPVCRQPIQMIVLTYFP

[3] = Homo sapiens, 96 h, read-out: PC3 IC50 (μM), PC3 p53 null, 4 days, WST-8
[4] = Homo sapiens, HCT-116, read-out: HCT116 p53WT IC50 (μM), HCT116 p53WT
[5] = read-out: HCT116 p53WT IC50, HCT116 p53WT
[6] = Homo sapiens, HCT-116, read-out: HCT116 p53KO IC50 (μM), HCT116 p53KO
[7] = Homo sapiens, LNCaP, 96 h, read-out: LNCaP IC50 (μM), LNCaP p53 wild-type, 4 days, WST-8
[8] = read-out: LNCaP IC50, LNCaP p53 wild-type, 4 days, WST-8
[9] = read-out: PC3 IC50, PC3 p53 null, 4 days, WST-8
[10] = read-out: HCT116 p53KO IC50, HCT116 p53KO

Row | Compound | IC50 (PC-3 (p53 null) cells; [3]) [µM] | IC50 [1, 4] [µM] | IC50 (HCT116 p53KO cells; [6]) [µM] | IC50 [2, 7] [µM] | IC50 (MDM2 protein) | also measured
1 | CC(C)(C)C[C@H]1N[C@@H](C(=O)NCC(=O)O)[C@H](c2ccc(F)c(Cl)c2)[C@@]12C(=O)Nc1cc(Cl)c(F)cc12 [MI-319-15, {[6-CHLORO-4′-(3-CHLORO-4-FLUOROPHENYL)-2′-(2,2-DIMETHYL-PROPYL)-5-FLUORO-2-OXO-1,2-DIHYDRO-SPIRO[INDOLE-3,3′-PYRROLIDINE]-5′-CARBONYL]-AMINO}-ACETIC ACID] | > 30 | 12.1 | > 30 | 4.52 | 0.35 µM and 0.18 µM | IC50 [1, 5]: 12.9 µM and 13.9 µM and 13 µM; IC50 [2, 8]: 4.12 µM and 6.11 µM and 4.92 µM
2 | CC(C)(C)C[C@H]1N[C@@H](C(=O)NCCNC(=N)N)[C@H](c2ccc(F)c(Cl)c2)[C@@]12C(=O)Nc1cc(Cl)c(F)cc12 [MI-319-20, 6-CHLORO-4′-(3-CHLORO-4-FLUOROPHENYL)-2′-(2,2-DIMETHYL-PROPYL)-5-FLUORO-2-OXO-1,2-DIHYDRO-SPIRO[INDOLE-3,3′-PYRROLIDINE]-5′-CARBOXYLIC ACID (2-GUANIDINO-ETHYL)-AMIDE] |  |  |  | 27.4 |  | IC50 [2, 8]: 31.6 µM
3 | O=C(NCC[C@H](O)CO)[C@@H]1N[C@H](C2CCCC2)[C@]2(C(=O)Nc3cc(Cl)c(F)cc32)[C@H]1c1ccc(F)c(Cl)c1 [MI-319-8, 6-CHLORO-4′-(3-CHLORO-4-FLUOROPHENYL)-2′-CYCLOPENTYL-5-FLUORO-2-OXO-1,2-DIHYDRO-SPIRO[INDOLE-3,3′-PYRROLIDINE]-5′-CARBOXYLIC ACID (3,4-DIHYDROXY-BUTYL)-AMIDE] |  |  |  |  | 0.34 µM and 0.53 µM | 
4 | CC(C)(C)C[C@H]1N[C@@H](C(=O)NC[C@H](O)[C@H](O)CO)[C@H](c2ccc(F)c(Cl)c2)[C@@]12C(=O)Nc1cc(Cl)c(F)cc12 [MI-319-19, 6-CHLORO-4′-(3-CHLORO-4-FLUOROPHENYL)-2′-(2,2-DIMETHYL-PROPYL)-5-FLUORO-2-OXO-1,2-DIHYDRO-SPIRO[INDOLE-3,3′-PYRROLIDINE]-5′-CARBOXYLIC ACID (2,3,4-TRIHYDROXY-BUTYL)-AMIDE] |  |  |  |  | 0.5 µM and 0.49 µM | 
5 | CC(C)(C)C[C@H]1N[C@@H](C(=O)NCC[C@@H](O)C[C@@H](O)CC(=O)O)[C@H](c2ccc(F)c(Cl)c2)[C@@]12C(=O)Nc1cc(Cl)c(F)cc12 [MI-319-18, 7-{[6-CHLORO-4′-(3-CHLORO-4-FLUOROPHENYL)-2′-(2,2-DIMETHYL-PROPYL)-5-FLUORO-2-OXO-1,2-DIHYDRO-SPIRO[INDOLE-3,3′-PYRROLIDINE]-5′-CARBONYL]-AMINO}-3,5-DIHYDROXY-HEPTANOIC ACID] | > 30 | > 30 | > 30 | > 30 | 3.51 µM and 3.57 µM | 
6 | CC(C)(C)C[C@H]1N(S(=O)(=O)C(F)(F)F)[C@@H](C(=O)NCCN2CCOCC2)[C@H](c2ccc(F)c(Cl)c2)[C@@]12C(=O)Nc1cc(Cl)c(F)cc12 [MI-319-10] | 10.5 | 1.41 |  | 0.776 |  | IC50 (PC-3 (p53 null) cells; [9]): 10.4 µM and 8.07 µM and 9.63 µM; IC50 [1, 5]: 1.95 µM and 1.09 µM and 1.48 µM; IC50 [2, 8]: 0.828 µM and 0.449 µM and 0.68 µM
7 | CC(C)(C)C[C@H]1N[C@@H](C(=O)NCCC2CCC(O)C2)[C@H](c2ccc(F)c(Cl)c2)[C@@]12C(=O)Nc1cc(Cl)c(F)cc12 (single isomer, unassigned) [MDM2-319-6, 6-CHLORO-4′-(3-CHLORO-4-FLUOROPHENYL)-2′-(2,2-DIMETHYL-PROPYL)-5-FLUORO-2-OXO-1,2-DIHYDRO-SPIRO[INDOLE-3,3′-PYRROLIDINE]-5′-CARBOXYLIC ACID [2-(3-HYDROXY-CYCLOPENTYL)-ETHYL]-AMIDE] |  |  |  |  | 0.59 µM and 0.55 µM | 
8 | COC(C)(C)C[C@H]1N[C@@H](C(=O)NCC[C@H](O)CO)[C@H](c2ccc(F)c(Cl)c2)[C@@]12C(=O)Nc1cc(Cl)c(F)cc12 [MI-319-7] | 39.7 | 8.22 |  | 2.17 | 39.3 µM | 
9 | CC(C)(C)C[C@H]1N[C@@H](C(=O)NCC[C@H](O)CO)[C@H](c2ccc(F)c(Cl)c2)[C@@]12C(=O)Nc1cc(Cl)c(F)cc12 [MDM2-319, (2′R,3S,3″S,4′R,5′R)6-CHLORO-4′-(3-CHLORO-4-FLUORO-PHENYL)-2′-(2,2-DIMETHYL-PROPYL)-5-FLUORO-2-OXO-1,2-DIHYDRO-SPIRO[INDOLE-3,3′-PYRROLIDINE]-5′-CARBOXYLIC ACID (3,4-DIHYDROXY-BUTYL)-AMIDE] |  |  | 12.8 ± 1.29 | 0.229 ± 0.04 |  | 
10 | O=C(NCC[C@H](O)CO)[C@@H]1N[C@H](C2CCCCC2)[C@]2(C(=O)Nc3cc(Cl)c(F)cc32)[C@H]1c1ccc(F)c(Cl)c1 [MDM2-319-4, 6-CHLORO-4′-(3-CHLORO-4-FLUOROPHENYL)-2′-CYCLOHEXYL-5-FLUORO-2-OXO-1,2-DIHYDRO-SPIRO[INDOLE-3,3′-PYRROLIDINE]-5′-CARBOXYLIC ACID (3,4-DIHYDROXY-BUTYL)-AMIDE] |  |  |  |  | 0.71 µM and 1.16 µM and 0.46 µM | Ki (MDM2 protein): 0.066 µM
11 | CC(=O)N1[C@@H](C(=O)NCC[C@H](O)CO)[C@H](c2ccc(F)c(Cl)c2)[C@@]2(C(=O)Nc3cc(Cl)c(F)cc32)[C@H]1CC(C)(C)C [MI-319-13, 1′-ACETYL-6-CHLORO-4′-(3-CHLORO-4-FLUOROPHENYL)-2′-(2,2-DIMETHYL-PROPYL)-5-FLUORO-2-OXO-1,2-DIHYDRO-SPIRO[INDOLE-3,3′-PYRROLIDINE]-5′-CARBOXYLIC ACID (3,4-DIHYDROXY-BUTYL)-AMIDE] |  |  | 32.6 |  | 5.87 µM and 5.04 µM | IC50 (HCT116 p53KO cells; [10]): 35.1 µM and 33 µM and 33.6 µM
12 | CC(C)(C)C[C@H]1N[C@@H](C(=O)NCCc2ncc[nH]2)[C@H](c2cccc(Cl)c2)[C@@]12C(=O)Nc1cc(Cl)c(F)cc12 [MI-319-21] | 21.9 | 4.4 | 11.8 | 2.84 |  | 
13 | CC(C)(C)C[C@H]1N[C@@H](C(=O)NCCC2CCC(O)C2)[C@H](c2ccc(F)c(Cl)c2)[C@@]12C(=O)Nc1cc(Cl)c(F)cc12 (some centres unmarked) [MDM2-319-5] | 9.47 | 0.993 | 10.5 | 0.602 | 0.055 µM and 0.04 µM | 
14 | CN1CCN(C(=O)[C@@H]2N[C@H](CC(C)(C)C)[C@]3(C(=O)Nc4cc(Cl)c(F)cc43)[C@H]2c2ccc(F)c(Cl)c2)CC1 [MI-319-9] |  |  |  | 2.87 | 3.58 µM | IC50 [2, 8]: 2.77 µM and 1.75 µM
15 | O=C(NCC[C@H](O)CO)[C@@H]1N[C@H](CC2CCCC2)[C@]2(C(=O)Nc3cc(Cl)c(F)cc32)[C@H]1c1ccc(F)c(Cl)c1 [MDM2-319-1, 6-CHLORO-4′-(3-CHLORO-4-FLUOROPHENYL)-2′-CYCLOPENTYLMETHYL-5-FLUORO-2-OXO-1,2-DIHYDRO-SPIRO[INDOLE-3,3′-PYRROLIDINE]-5′-CARBOXYLIC ACID (3,4-DIHYDROXY-BUTYL)-AMIDE] |  |  |  |  | 0.194 µM and 0.072 µM | 
16 | O=C(NCC[C@H](O)CO)[C@@H]1N[C@H](Cc2ccccc2)[C@]2(C(=O)Nc3cc(Cl)c(F)cc32)[C@H]1c1ccc(F)c(Cl)c1 [MDM2-319-2] | 14.4 |  | 22.2 |  | 175 µM and > 80 µM | IC50 (PC-3 (p53 null) cells; [9]): 19.6 µM (2×) and 17.9 µM; IC50 (HCT116 p53KO cells; [10]): 19.5 µM and 25.4 µM and 22.4 µM; Ki (MDM2 protein): 16.4 µM
17 | CC(C)(C)C[C@H]1N[C@@H](C(=O)NCCn2ccnc2)[C@H](c2ccc(F)c(Cl)c2)[C@@]12C(=O)Nc1cc(Cl)c(F)cc12 [MI-319-17, 6-CHLORO-4′-(3-CHLORO-4-FLUOROPHENYL)-2′-(2,2-DIMETHYL-PROPYL)-5-FLUORO-2-OXO-1,2-DIHYDRO-SPIRO[INDOLE-3,3′-PYRROLIDINE]-5′-CARBOXYLIC ACID (2-IMIDAZOL-1-YL-ETHYL)-AMIDE] |  |  |  |  | 0.39 µM and 0.49 µM | 
18 | CC(C)(C)C[C@H]1N[C@@H](C(=O)NCC[C@H](O)C(=O)O)[C@H](c2ccc(F)c(Cl)c2)[C@@]12C(=O)Nc1cc(Cl)c(F)cc12 [MI-319-16] | > 30 | > 30 |  |  |  | 
